Source: the supplement of paper PMC10307832

Tests used:
Test in all cases: relative viability (nuclei count vs DMSO), 5 days (fraction); higher = more cells survive
Idelalisib + Trametinib = compound: CC[C@H](Nc1ncnc2[nH]cnc12)c1nc2cccc(F)c2c(=O)n1-c1ccccc1 [Idelalisib] + CC(=O)Nc1cccc(-n2c(=O)n(C3CC3)c(=O)c3c(Nc4ccc(I)cc4F)n(C)c(=O)c(C)c32)c1 [Trametinib] (partner 0.02 µM)
How it was run: (§1)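 Medians of duplicate plates are given as relative viability. That measure is the nuclei count in treated wells divided by the count in vehicle wells. Counts were taken on 4× images of lung cancer cell lines in 1536-well plates, 5 days after pin-tool dosing the day after seeding with one drug alone or a fixed anchor-drug dose plus five library-drug doses (not always all listed) in √10 steps.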

Idelalisib + Pemetrexed = compound: CC[C@H](Nc1ncnc2[nH]cnc12)c1nc2cccc(F)c2c(=O)n1-c1ccccc1 [Idelalisib] + Nc1nc2[nH]cc(CCc3ccc(C(=O)N[C@@H](CCC(=O)O)C(=O)O)cc3)c2c(=O)[nH]1 [Pemetrexed] (partner 0.2 µM)
How it was run: as §1

Idelalisib + Decitabine = compound: CC[C@H](Nc1ncnc2[nH]cnc12)c1nc2cccc(F)c2c(=O)n1-c1ccccc1 [Idelalisib] + Nc1ncn([C@H]2C[C@H](O)[C@@H](CO)O2)c(=O)n1 [Decitabine] (partner 2 µM)
How it was run: as §1

Idelalisib + Alpelisib = compound: CC[C@H](Nc1ncnc2[nH]cnc12)c1nc2cccc(F)c2c(=O)n1-c1ccccc1 [Idelalisib] + Cc1nc(NC(=O)N2CCC[C@H]2C(N)=O)sc1-c1ccnc(C(C)(C)C(F)(F)F)c1 [Alpelisib] (partner 2 µM)
How it was run: as §1

| Cell Line | relative viability (Idelalisib + Trametinib; first compound 0.04 µM) | relative viability (Idelalisib + Trametinib; first compound 0.1265 µM) | relative viability (Idelalisib + Trametinib; first compound 0.4 µM) | relative viability (Idelalisib + Trametinib; first compound 1.265 µM) | relative viability (Idelalisib + Trametinib; first compound 4 µM) | relative viability (Idelalisib + Pemetrexed; first compound 0.04 µM) | relative viability (Idelalisib + Pemetrexed; first compound 0.1265 µM) | relative viability (Idelalisib + Pemetrexed; first compound 0.4 µM) | relative viability (Idelalisib + Pemetrexed; first compound 1.265 µM) | relative viability (Idelalisib + Pemetrexed; first compound 4 µM) | relative viability (Idelalisib + Decitabine; first compound 0.04 µM) | relative viability (Idelalisib + Decitabine; first compound 0.1265 µM) | relative viability (Idelalisib + Decitabine; first compound 0.4 µM) | relative viability (Idelalisib + Decitabine; first compound 1.265 µM) | relative viability (Idelalisib + Decitabine; first compound 4 µM) | relative viability (Idelalisib + Alpelisib; first compound 0.04 µM) | relative viability (Idelalisib + Alpelisib; first compound 0.1265 µM) | relative viability (Idelalisib + Alpelisib; first compound 0.4 µM) | relative viability (Idelalisib + Alpelisib; first compound 1.265 µM) | relative viability (Idelalisib + Alpelisib; first compound 4 µM) |
| --- | --- | --- | --- | --- | --- | --- | --- | --- | --- | --- | --- | --- | --- | --- | --- | --- | --- | --- | --- | --- |
| 201T | 0.701 | 0.697 | 0.688 | 0.759 | 0.734 | 0.352 | 0.318 | 0.357 | 0.314 | 0.32 | 0.876 | 0.864 | 0.841 | 0.904 | 0.77 | 0.974 | 0.987 | 0.937 | 0.963 | 0.872 |
| A549 |  |  |  |  |  |  |  |  |  |  | 0.263 | 0.281 | 0.21 | 0.345 | 0.247 | 0.873 | 0.812 | 0.505 | 0.51 | 0.548 |
| A-427 | 0.843 | 0.812 | 0.667 | 0.78 | 0.7 | 1.11 | 1 | 0.925 | 0.998 | 0.955 | 0.57 | 0.564 | 0.545 | 0.562 | 0.507 | 1.11 | 1.05 | 0.945 | 1.15 | 1.06 |
| ABC-1 |  |  |  |  |  |  |  |  |  |  | 1.03 | 1.2 | 1.08 | 1.17 | 1.15 | 0.956 | 1.22 | 1.08 | 1.13 | 0.807 |
| BEN | 1.01 | 0.98 | 0.929 | 0.735 | 0.766 | 0.824 | 0.709 | 0.895 | 0.736 | 0.724 | 0.736 | 0.649 | 0.757 | 0.775 | 0.694 | 1.05 | 1.13 | 0.853 | 1.04 | 0.853 |
| CAL-12T | 0.422 | 0.28 | 0.276 | 0.363 | 0.339 | 1.34 | 0.925 | 1.22 | 1.21 | 1.23 |  |  |  |  |  | 1.34 | 1.18 | 0.898 | 0.966 | 0.971 |
| COR-L23 | 0.603 | 0.639 | 0.538 | 0.62 | 0.578 | 0.186 | 0.203 | 0.199 | 0.204 | 0.182 | 0.489 | 0.49 | 0.46 | 0.471 | 0.401 | 0.698 | 0.769 | 0.634 | 0.69 | 0.763 |
| COR-L 105 | 0.518 | 0.41 | 0.41 | 0.456 | 0.461 | 1.18 | 1.1 | 0.913 | 1.06 | 0.924 | 0.567 | 0.667 | 0.513 | 0.615 | 0.642 | 1.05 | 1.08 | 0.855 | 0.83 | 0.586 |
| Calu-6 |  |  |  |  |  |  |  |  |  |  |  |  |  |  |  | 0.954 | 1.03 | 0.909 | 0.99 | 0.892 |
| ChaGo-K-1 | 0.945 | 0.907 | 0.865 | 0.906 | 0.913 | 0.254 | 0.252 | 0.268 | 0.254 | 0.264 | 0.515 | 0.404 | 0.524 | 0.538 | 0.46 |  |  |  |  |  |
| EBC-1 |  |  |  |  |  |  |  |  |  |  |  |  |  |  |  | 0.961 | 0.941 | 0.684 | 0.658 | 0.349 |
| EKVX | 0.332 | 0.406 | 0.352 | 0.334 | 0.278 | 0.407 | 0.387 | 0.377 | 0.386 | 0.395 | 0.323 | 0.341 | 0.334 | 0.294 | 0.316 | 0.835 | 0.896 | 0.728 | 0.625 | 0.53 |
| EMC-BAC-2 | 0.953 | 0.875 | 0.795 | 0.863 | 0.859 | 0.484 | 0.44 | 0.477 | 0.435 | 0.43 | 1 | 1.03 | 0.942 | 1.05 | 0.941 | 0.689 | 0.736 | 0.674 | 0.707 | 0.684 |
| EPLC-272H | 0.311 | 0.291 | 0.254 | 0.257 | 0.216 | 0.303 | 0.386 | 0.317 | 0.23 | 0.347 | 0.35 | 0.354 | 0.366 | 0.435 | 0.333 | 0.617 | 0.9 | 0.767 | 0.74 | 0.669 |
| H3255 | 0.602 | 0.57 | 0.471 | 0.577 | 0.527 | 0.692 | 0.551 | 0.55 | 0.561 | 0.488 | 0.902 | 0.623 | 0.538 | 0.721 | 0.512 | 0.652 | 0.683 | 0.591 | 0.518 | 0.607 |
| HARA | 0.78 | 0.773 |  | 0.593 | 0.671 | 0.24 | 0.243 |  | 0.222 | 0.247 | 0.642 | 0.62 |  | 0.548 | 0.586 | 1.03 | 0.843 | 0.855 | 0.754 | 0.751 |
